Consider 13 compounds from patent publication US5767296A, “Deacetoxytaxol derivatives” (Daiichi Pharmaceutical Co., Ltd., priority 1994, dated 1998).

The GI50 is the concentration that inhibits growth by half.

In brackets after ≈: the same amount, converted by molar mass. Read-outs that look alike come from different tables or passages of the source.

For one assay, the system named is P388. In words: Antitumor effect by MTT assay, P388 tumor cells. Format: cell-based. The following applies: Mus musculus, read-out: GI50 Value. The procedure:
(§1) Each of three tumor cells, P388, PC-6 and PC-12, were inoculated in a 96-well microplate in amounts of 5.0×10^2 cells/150 μl/well of P388, 5.0×10^3 cells/150 μl/well of PC-6, and 1.0×10^3 cells/150 μl/well of PC-12, and after 2 hours in the case of P388 or after 24 hours in the cases of PC-6 and PC-12, test compound was added to the well in an amount of 50 μl/well in each case. Cells were cultivated for 3 days. Then, a 5 mg/ml solution of MTT [3-(4,5-dimethylthiazol-2-yl)-2,5-diphenyl-2H-tetrazolium bromide] was added to the well in an amount of 20 μl/well. After 4 hours, the culture liquid was removed, dimethylsulfoxide was added to the well in an amount of 150 μl/well, and the absorbance at 540 nm was measured. The antitumor effect was determined in terms of a concentration of the test compound required for suppressing the cell growth in the medicated group to 50% of the cell growth in the control group, i.e., a GI50 value (ng/ml).
On the technique in general: Formazan colour is commonly taken as a measure of viable cells.

For another assay, the system named is PC-6. The assay is described as follows: Antitumor effect by MTT assay, PC-6 tumor cells. Format: cell-based. The following applies: Homo sapiens, read-out: GI50 Value. The procedure:
as §1

The subject of another assay is PC-12. In words: Antitumor effect by MTT assay, PC-12 tumor cells. Format: cell-based. The following applies: Rattus norvegicus, read-out: GI50 Value. Here is the method: as §1
The test system of assay [1] is cancers of digestive tracts, in particular, the cancer of large intestine. The following applies: background art; cited from earlier work.
Another assay has as its system microtubules. The note with it: background art; cited from earlier work.
The subject of a further assay is tumor. The note with it: background art; cited from earlier work.

`CC(=O)O[C@@]12CO[C@@H]1C[C@H](O)[C@@]1(C)C(=O)C(CCN3CCOCC3)C3=C(C)[C@@H](OC(=O)[C@H](O)[C@@H](NC(=O)OC(C)(C)C)c4ccccc4)C[C@@](O)([C@@H](OC(=O)c4ccccc4)[C@H]21)C3(C)C` (stereo partly drawn) [Example 20, 13-O-[(2R,3S)-3-(tert-Butoxycarbonylamino)-2-hydroxy-3-phenylpropionyl]-10-deacetoxy-10-(2-morpholinoethyl)baccatin III]: the 50% growth inhibitory concentration (GI50) was 3.07 ng/mL (≈ 3.39 nM) in the assay on P388 (72 h, P388, 3 days, MTT); 0.603 ng/mL (≈ 0.666 nM) with PC-6 (72 h, PC-6, 3 days, MTT); 13.5 ng/mL (≈ 14.9 nM) with PC-12 (72 h, PC-12, 3 days, MTT).

Take `CC(=O)O[C@@]12CO[C@@H]1C[C@H](O)[C@@]1(C)C(=O)C(CC=O)C3=C(C)[C@@H](OC(=O)[C@H](O)[C@@H](NC(=O)OC(C)(C)C)c4ccccc4)C[C@@](O)([C@@H](OC(=O)c4ccccc4)[C@H]21)C3(C)C` (stereo partly drawn) [Example 18, 13-O-[(2R,3S)-3-(tert-Butoxycarbonylamino)-2-hydroxy-3-phenylpropionyl]-10-deacetoxy-10-(formylmethyl)baccatin III]: the GI50 with P388 (P388, 72 h) turned out to be 1.19 ng/mL (≈ 1.43 nM); in the assay on PC-6 (PC-6, 72 h), 0.983 ng/mL (≈ 1.18 nM); in the assay with PC-12 (PC-12, 72 h) it was 12.9 ng/mL (≈ 15.5 nM).

On to `CCCC(=O)O[C@@]12CO[C@@H]1C[C@H](O)[C@@]1(C)C(=O)C(CCN3CCOCC3)C3=C(C)[C@@H](OC(=O)[C@H](O)[C@@H](NC(=O)OC(C)(C)C)c4ccccc4)C[C@@](O)([C@@H](OC(=O)c4ccccc4)[C@H]21)C3(C)C` (stereo partly drawn) [Example 24, 4-O-Butanoyl-13-O-[(2R,3S)-3-(tert-butoxycarbonylamino)-2-hydroxy-3-phenylpropionyl]-10-deacetoxy-4-deacetyl-10-(2-morpholinoethyl)baccatin III], for which the GI50 stood at 0.845 ng/mL (≈ 0.906 nM) in the assay with P388 (P388, 72 h); 1.67 ng/mL (≈ 1.79 nM) with PC-6 (PC-6, 72 h); 4.99 ng/mL (≈ 5.35 nM) in the assay with PC-12 (PC-12, 72 h).

Consider `CC(=O)O[C@H]1C(=O)[C@@]2(C)[C@H]([C@H](OC(=O)c3ccccc3)[C@]3(O)C[C@H](OC(=O)[C@H](O)[C@@H](NC(=O)c4ccccc4)c4ccccc4)C(C)=C1C3(C)C)[C@]1(OC(C)=O)CO[C@@H]1C[C@@H]2O` [Taxol], for which the “effectiveness on cancers of digestive tracts” value in assay [1] is on record as “weak”. Besides, the “inhibitory activity on the disassembly of microtubules in cytokinesis” value in the assay with microtubules is “inhibitory activity on the disassembly of microtubules in cytokinesis”. Also, the GI50 with P388 (P388, 72 h) was found to be 30.4 ng/mL (≈ 35.6 nM); in the assay with PC-6 (PC-6, 72 h) it was 3.51 ng/mL (≈ 4.11 nM); with PC-12 (PC-12, 72 h), 136 ng/mL (≈ 159 nM).

`CCC(=O)O[C@@]12CO[C@@H]1C[C@H](O)[C@@]1(C)C(=O)C(CCN3CCOCC3)C3=C(C)[C@@H](OC(=O)[C@H](O)[C@@H](NC(=O)OC(C)(C)C)c4ccccc4)C[C@@](O)([C@@H](OC(=O)c4ccccc4)[C@H]21)C3(C)C` (stereo partly drawn) [Example 26, 13-O-[(2R,3S)-3-(tert-butoxycarbonylamino)-2-hydroxy-3-phenylpropionyl]-10-deacetoxy-4-deacetyl-10-(2-morpholinoethyl)-4-O-propionylbaccatin III]: the GI50 worked out at 1.07 ng/mL (≈ 1.16 nM) with P388 (P388, 72 h); 1.22 ng/mL (≈ 1.33 nM) in the assay on PC-6 (PC-6, 72 h); 5.64 ng/mL (≈ 6.14 nM) with PC-12 (PC-12, 72 h).

Regarding `CCC(=O)O[C@@]12CO[C@@H]1C[C@H](O)[C@@]1(C)C(=O)C(CCN3CCOCC3)C3=C(C)[C@@H](OC(=O)C(O)C(C=C(C)C)NC(=O)OC(C)(C)C)C[C@@](O)([C@@H](OC(=O)c4ccccc4)[C@H]21)C3(C)C` (single isomer, unassigned) [Example 33 Isomer B, 13-O-[3-(tert-Butoxycarbonylamino)-2-hydroxy-5-methyl-4-hexenoyl]-10-deacetoxy-4-deacetyl-10-(2-morpholinoethyl)-4-O-propionylbaccatin III], the GI50 in the assay with P388 (P388, 72 h) was 0.69 ng/mL (≈ 0.769 nM); in the assay with PC-6 (PC-6, 72 h), 4.13 ng/mL (≈ 4.6 nM); in the assay on PC-12 (PC-12, 72 h) it was 4.16 ng/mL (≈ 4.64 nM).

On to `CC(=O)O[C@@]12CO[C@@H]1C[C@H](O)[C@@]1(C)C(=O)[C@H](O)C3=C(C)[C@@H](OC(=O)[C@H](O)[C@@H](NC(=O)OC(C)(C)C)c4ccccc4)C[C@@](O)([C@@H](OC(=O)c4ccccc4)[C@H]21)C3(C)C` [Taxotel, reference compound], for which the “antitumor activity compared with taxol” value in the assay with tumor is given as “equal to or higher than that of taxol”. The GI50 was determined as 5.3 ng/mL (≈ 6.56 nM) in the assay on P388 (72 h, P388, 3 days, MTT); 1.72 ng/mL (≈ 2.13 nM) in the assay on PC-6 (72 h, PC-6, 3 days, MTT); 49.7 ng/mL (≈ 61.5 nM) with PC-12 (72 h, PC-12, 3 days, MTT).

Consider `CCOC(=O)O[C@@]12CO[C@@H]1C[C@H](O)[C@@]1(C)C(=O)C(CCN3CCOCC3)C3=C(C)[C@@H](OC(=O)[C@H](O)[C@@H](NC(=O)OC(C)(C)C)c4ccccc4)C[C@@](O)([C@@H](OC(=O)c4ccccc4)[C@H]21)C3(C)C` (stereo partly drawn) [Example 35, 13-O-[(2R,3S)-3-(tert-Butoxycarbonylamino)-2-hydroxy-3-phenylpropionyl]-10-deacetoxy-4-deacetyl4-O-ethoxycarbonyl-10-(2-morpholinoethyl)baccatin III], for which the GI50 in the assay on P388 (P388, 72 h) was 0.729 ng/mL (≈ 0.78 nM); in the assay on PC-6 (PC-6, 72 h), 1.83 ng/mL (≈ 1.96 nM); with PC-12 (PC-12, 72 h), 2.95 ng/mL (≈ 3.15 nM).

For the compound `CC1=C2C(CCN3CCOCC3)C(=O)[C@@]3(C)[C@H]([C@H](OC(=O)c4ccccc4)[C@](O)(C[C@@H]1OC(=O)[C@H](O)[C@@H](NC(=O)OC(C)(C)C)c1ccccc1)C2(C)C)[C@]1(OC(=O)C2CC2)CO[C@@H]1C[C@@H]3O` (stereo partly drawn) [Example 36, 13-O-[(2R,3S)-3-(tert-butoxycarbonylamino)-2-hydroxy-3-phenylpropionyl]-4-O-cyclopropylcarbonyl-10-deacetoxy-10-(2-morpholinoethyl)baccatin III], the GI50 in the assay with P388 (P388, 72 h) worked out at 0.505 ng/mL (≈ 0.542 nM); in the assay on PC-6 (PC-6, 72 h), 1.64 ng/mL (≈ 1.76 nM); with PC-12 (PC-12, 72 h) it was 1.81 ng/mL (≈ 1.94 nM).

As to `C=CCC1C(=O)[C@@]2(C)[C@H]([C@H](OC(=O)c3ccccc3)[C@]3(O)C[C@H](OC(=O)[C@H](O)[C@@H](NC(=O)OC(C)(C)C)c4ccccc4)C(C)=C1C3(C)C)[C@]1(OC(C)=O)CO[C@@H]1C[C@@H]2O` (stereo partly drawn) [Example 16, 10-Allyl-13-O-[(2R,3S)-3-(tert-butoxycarbonylamino)-2-hydroxy-3-phenylpropionyl]-10-deacetoxybaccatin III], the GI50 in the assay on P388 (P388, 72 h) was 1.16 ng/mL (≈ 1.39 nM); in the assay on PC-6 (PC-6, 72 h), 0.677 ng/mL (≈ 0.814 nM); in the assay on PC-12 (PC-12, 72 h), 7.87 ng/mL (≈ 9.46 nM).

As for `C=CCC1C(=O)[C@@]2(C)[C@H]([C@H](OC(=O)c3ccccc3)[C@]3(O)C[C@H](OC(=O)[C@H](O)[C@@H](NC(=O)OC(C)(C)C)c4ccco4)C(C)=C1C3(C)C)[C@]1(OC(=O)CCC)CO[C@@H]1C[C@@H]2O` (stereo partly drawn) [Example 25, 10-Allyl-4-O-Butanoyl-13-O-[3-(tert-butoxycarbonylamino)-3-(2-furyl)-2-hydroxypropionyl]-10-deacetoxy-4-deacetylbaccatin III], the GI50 in the assay on P388 (72 h, P388, 3 days, MTT) was 0.226 ng/mL (≈ 0.266 nM); in the assay on PC-6 (72 h, PC-6, 3 days, MTT), 0.771 ng/mL (≈ 0.907 nM); in the assay on PC-12 (72 h, PC-12, 3 days, MTT) it was 1.34 ng/mL (≈ 1.58 nM).

With `CCC(=O)O[C@@]12CO[C@@H]1C[C@H](O)[C@@]1(C)C(=O)C(CCN3CCOCC3)C3=C(C)[C@@H](OC(=O)[C@H](O)[C@@H](NC(=O)OC(C)(C)C)c4ccco4)C[C@@](O)([C@@H](OC(=O)c4ccccc4)[C@H]21)C3(C)C` (stereo partly drawn) [Example 31, 13-O-[(2R,3S)-3-(tert-Butoxycarbonylamino)-3-(2-furyl)-2-hydroxypropionyl]-10-deacetoxy-4-deacetyl-10-(2-morpholinoethyl)-4-O-propionylbaccatin III], the GI50 in the assay with P388 (P388, 72 h) came to 0.136 ng/mL (≈ 0.15 nM); in the assay with PC-6 (PC-6, 72 h), 1.03 ng/mL (≈ 1.13 nM); with PC-12 (PC-12, 72 h) it was 1.26 ng/mL (≈ 1.39 nM).

As to `COC(=O)CCC1C(=O)[C@@]2(C)[C@H]([C@H](OC(=O)c3ccccc3)[C@]3(O)C[C@H](OC(=O)[C@H](O)[C@@H](NC(=O)OC(C)(C)C)c4ccccc4)C(C)=C1C3(C)C)[C@]1(OC(C)=O)CO[C@@H]1C[C@@H]2O` (stereo partly drawn) [Example 7, 13-O-[(2R,3S)-3-(tert-Butoxycarbonylamino)-2-hydroxy-3-phenylpropionyl]-10-deacetoxy-10-(2-methoxycarbonylethyl)baccatin III], the GI50 in the assay on P388 (P388, 72 h) was found to be 3.3 ng/mL (≈ 3.76 nM); in the assay on PC-6 (PC-6, 72 h), 0.771 ng/mL (≈ 0.878 nM); with PC-12 (PC-12, 72 h), 24.4 ng/mL (≈ 27.8 nM).
